Experimental findings from patent US20220380338A1, “CYCLOALKYL 3-OXOPIPERAZINE CARBOXAMIDES AND CYCLOHETEROALKYL 3-OXOPIPERAZINE CARBOXAMIDES AS NAV1.8 INHIBITORS” (Merck Sharp & Dohme LLC, priority 2021, published 2022) are described below.

As a reminder, the IC50 is the concentration needed to halve the response being measured.

T1 sequence (Q9Y5Y9 whole entry): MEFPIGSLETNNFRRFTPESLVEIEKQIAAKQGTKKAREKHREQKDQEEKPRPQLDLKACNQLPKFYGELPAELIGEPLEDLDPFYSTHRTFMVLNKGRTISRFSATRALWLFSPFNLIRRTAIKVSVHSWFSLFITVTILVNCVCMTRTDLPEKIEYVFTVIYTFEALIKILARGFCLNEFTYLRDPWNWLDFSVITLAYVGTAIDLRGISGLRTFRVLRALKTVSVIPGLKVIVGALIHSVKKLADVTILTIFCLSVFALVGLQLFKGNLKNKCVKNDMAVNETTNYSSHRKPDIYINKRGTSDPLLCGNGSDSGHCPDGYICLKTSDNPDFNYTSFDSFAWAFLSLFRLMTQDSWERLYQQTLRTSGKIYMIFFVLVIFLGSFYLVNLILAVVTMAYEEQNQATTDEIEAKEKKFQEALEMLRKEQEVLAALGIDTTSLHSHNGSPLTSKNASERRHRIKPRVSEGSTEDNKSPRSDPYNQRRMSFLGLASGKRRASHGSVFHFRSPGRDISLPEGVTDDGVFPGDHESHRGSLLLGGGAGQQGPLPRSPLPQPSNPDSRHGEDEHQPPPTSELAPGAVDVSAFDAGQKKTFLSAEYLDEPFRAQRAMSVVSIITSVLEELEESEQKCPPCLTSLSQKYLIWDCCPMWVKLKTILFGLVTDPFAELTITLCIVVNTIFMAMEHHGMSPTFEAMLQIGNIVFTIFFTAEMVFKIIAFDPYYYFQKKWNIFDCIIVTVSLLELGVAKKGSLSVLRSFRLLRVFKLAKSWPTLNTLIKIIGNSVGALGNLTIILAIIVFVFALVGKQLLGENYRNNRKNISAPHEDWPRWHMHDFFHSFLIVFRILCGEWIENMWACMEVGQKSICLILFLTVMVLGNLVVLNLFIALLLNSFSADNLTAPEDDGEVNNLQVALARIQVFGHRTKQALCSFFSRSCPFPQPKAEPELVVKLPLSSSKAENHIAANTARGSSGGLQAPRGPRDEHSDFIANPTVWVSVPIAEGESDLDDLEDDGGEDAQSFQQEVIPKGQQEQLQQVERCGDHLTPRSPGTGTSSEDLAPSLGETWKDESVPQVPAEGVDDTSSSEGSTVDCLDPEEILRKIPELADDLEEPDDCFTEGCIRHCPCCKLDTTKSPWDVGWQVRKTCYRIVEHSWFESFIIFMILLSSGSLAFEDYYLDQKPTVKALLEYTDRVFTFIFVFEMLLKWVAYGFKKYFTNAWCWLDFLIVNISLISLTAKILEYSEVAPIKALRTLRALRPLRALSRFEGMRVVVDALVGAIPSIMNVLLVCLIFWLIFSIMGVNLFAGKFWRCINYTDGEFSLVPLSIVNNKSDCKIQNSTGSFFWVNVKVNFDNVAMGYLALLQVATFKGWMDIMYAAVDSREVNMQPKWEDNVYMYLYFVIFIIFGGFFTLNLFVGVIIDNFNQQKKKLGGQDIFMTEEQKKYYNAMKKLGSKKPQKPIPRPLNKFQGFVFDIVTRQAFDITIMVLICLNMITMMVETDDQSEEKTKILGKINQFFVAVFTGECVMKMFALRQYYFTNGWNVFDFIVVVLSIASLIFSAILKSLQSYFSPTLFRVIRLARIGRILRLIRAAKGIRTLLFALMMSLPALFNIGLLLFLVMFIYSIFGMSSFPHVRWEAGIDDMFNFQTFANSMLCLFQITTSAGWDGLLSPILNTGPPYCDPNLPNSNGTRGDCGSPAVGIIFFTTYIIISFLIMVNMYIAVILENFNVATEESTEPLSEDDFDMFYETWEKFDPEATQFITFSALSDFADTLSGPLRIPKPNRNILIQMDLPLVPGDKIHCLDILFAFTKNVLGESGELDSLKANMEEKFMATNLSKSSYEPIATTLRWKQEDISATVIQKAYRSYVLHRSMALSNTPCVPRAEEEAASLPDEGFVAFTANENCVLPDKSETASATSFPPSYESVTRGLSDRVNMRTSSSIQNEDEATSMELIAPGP

The experiment has as its target T1, human NaV1.8 (Homo sapiens, UniProt Q9Y5Y9).
T1 construct: expressed in transfected cells
The experiment in a line: Nav1.8 Qube® Assay (automated 384-well patch-clamp, inhibition of sodium current). Type of experiment: cell-based. As to conditions: human NaV1.8 channels stably expressed in HEK 293 cells, room temperature. The procedure, abridged:
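Whole-cell voltage clamp at room temperature in HEK293 cells stably expressing NaV1.8; from −90 mV hold, 10 s 1 Hz train of 20 ms pulses to 10 mV with 980 ms repolarization to −67 mV. Peak currents of 1st and 10th pulses give resting and inactivated-state IC50s, Hill fit.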
`C[C@@H]1C(=O)NCCN1C(=O)NC(c1ccc(F)c(Cl)c1F)C1CCC(C(F)(F)F)C1` (single isomer, unassigned) [Example 58B, (2R)—N—((R or S)-(3-chloro-2,4-difluorophenyl)(cis-3-(trifluoromethyl)cyclopentyl)methyl)-2-methyl-3-oxopiperazine-1-carboxamide] had an IC50 of 5.65 nM. Then `C[C@@H]1C(=O)NCCN1C(=O)NC(c1ccc(F)c(Cl)c1F)C1CCC(C(F)(F)F)C1` (single isomer, unassigned) [Example 58C, (2R)—N—((R or S)-(3-chloro-2,4-difluorophenyl)(trans-3-(trifluoromethyl)cyclopentyl)methyl)-2-methyl-3-oxopiperazine-1-carboxamide], with 5.1 nM. To `C[C@@H]1C(=O)NCCN1C(=O)NC(c1ccc(F)c(Cl)c1F)C1CCC(C(F)(F)F)C1` (single isomer, unassigned) [Example 58D, (2R)—N—((R or S)-(3-chloro-2,4-difluorophenyl)(trans-3-(trifluoromethyl)cyclopentyl)methyl)-2-methyl-3-oxopiperazine-1-carboxamide] belongs 6.03 nM. Compound `[2H]C1([2H])NC(=O)C(C)N(C(=O)N[C@H](c2ccc(F)c(Cl)c2F)[C@H]2C[C@H](C(F)(F)F)C2)C1([2H])[2H]` (single isomer, unassigned) [Example 59A, (R or S)—N—((S)-(3-chloro-2,4-difluorophenyl)((trans)-3-(trifluoromethyl)cyclobutyl)methyl)-2-methyl-3-oxopiperazine-5,5,6,6-d4-1-carboxamide] had an IC50 of 2.6 nM. Then `[2H]C1([2H])NC(=O)C(C)N(C(=O)N[C@H](c2ccc(F)c(Cl)c2F)[C@H]2C[C@H](C(F)(F)F)C2)C1([2H])[2H]` (single isomer, unassigned) [Example 59B, (S or R)—N—((S)-(3-chloro-2,4-difluorophenyl)((trans)-3-(trifluoromethyl)cyclobutyl)methyl)-2-methyl-3-oxopiperazine-5,5,6,6-d4-1-carboxamide], with 44 nM; and `C[C@@H]1C(=O)NCCN1C(=O)NC(c1ccc(F)c(C(F)(F)F)c1)C1CCC(C(F)(F)F)OC1` (single isomer, unassigned) [Example 60A, (2R)—N-((1(R or S))-(4-fluoro-3-(trifluoromethyl)phenyl)-trans-(6-(trifluoromethyl)tetrahydro-2H-pyran-3-yl)methyl)-2-methyl-3-oxopiperazine-1-carboxamide], with 10.1 nM; and `C[C@@H]1C(=O)NCCN1C(=O)NC(c1ccc(F)c(C(F)(F)F)c1)C1CCC(C(F)(F)F)OC1` (single isomer, unassigned) [Example 60B, (2R)—N-((1(R or S))-(4-fluoro-3-(trifluoromethyl)phenyl)-trans-(6-(trifluoromethyl)tetrahydro-2H-pyran-3-yl)methyl)-2-methyl-3-oxopiperazine-1-carboxamide], with 51.2 nM.

For the compound `C[C@@H]1C(=O)NCCN1C(=O)NC(c1ccc(F)c(Cl)c1F)C1COc2ccccc2C1` (single isomer, unassigned) [Example 62A, (R)—N—((R or S)-(3-chloro-2,4-difluorophenyl)((R or S)-chroman-3-yl)methyl)-2-methyl-3-oxopiperazine-1-carboxamide], the IC50 came to 3.2 nM. To `C[C@@H]1C(=O)NCCN1C(=O)NC(c1ccc(F)c(Cl)c1F)C1COc2ccccc2C1` (single isomer, unassigned) [Example 62B, (R)—N—((R or S)-(3-chloro-2,4-difluorophenyl)((S or R)-chroman-3-yl)methyl)-2-methyl-3-oxopiperazine-1-carboxamide] belongs 358 nM; to `C[C@@H]1C(=O)NCCN1C(=O)NC(c1ccc(F)c(Cl)c1F)C1COc2ccccc2C1` (single isomer, unassigned) [Example 62C, (R)—N—((S or R)-(3-chloro-2,4-difluorophenyl)((R or S)-chroman-3-yl)methyl)-2-methyl-3-oxopiperazine-1-carboxamide], 488 nM; to `C[C@@H]1C(=O)NCCN1C(=O)NC(c1ccc(F)c(Cl)c1F)C1COc2ccccc2C1` (single isomer, unassigned) [Example 62D, (R)—N—((S or R)-(3-chloro-2,4-difluorophenyl)((S or R)-chroman-3-yl)methyl)-2-methyl-3-oxopiperazine-1-carboxamide], 0.8 nM. To `O=C1NCCN(C(=O)N[C@H](c2ccc(F)c(Cl)c2F)[C@H]2C[C@H](C(F)(F)F)C2)C1C(F)(F)F` (single isomer, unassigned) [Example 63A, (R or S)—N—((S)-(3-chloro-2,4-difluorophenyl)((trans)-3-(trifluoromethyl)cyclobutyl)methyl)-3-oxo-2-(trifluoromethyl)piperazine-1-carboxamide] belongs 1.8 nM. To `O=C1NCCN(C(=O)N[C@H](c2ccc(F)c(Cl)c2F)[C@H]2C[C@H](C(F)(F)F)C2)C1C(F)(F)F` (single isomer, unassigned) [Example 63B, (S or R)—N—((S)-(3-chloro-2,4-difluorophenyl)((trans)-3-(trifluoromethyl)cyclobutyl)methyl)-3-oxo-2-(trifluoromethyl)piperazine-1-carboxamide] belongs 9.1 nM; to `C[C@@H]1C(=O)NCCN1C(=O)N[C@@H](c1ccc(F)c(Cl)c1F)[C@H]1C[C@H](C(F)(F)F)C1` [Example 20B, (R)—N—((R)-(3-chloro-2,4-difluorophenyl)(trans-3-(trifluoromethyl)cyclobutyl)methyl)-2-methyl-3-oxopiperazine-1-carboxamide], 191 nM; to `O=C1CN(C(=O)N[C@H](c2ccc(F)c(Cl)c2F)[C@H]2C[C@H](C(F)(F)F)C2)CCN1` [Example 26, N—((S)-(3-chloro-2,4-difluorophenyl)(trans-3-(trifluoromethyl)cyclobutyl)methyl)-3-oxopiperazine-1-carboxamide], 6.82 nM. The compound `[2H][C@@]1(CF)C(=O)NCCN1C(=O)N[C@H](c1ccc(F)c(Cl)c1F)[C@H]1C[C@H](C(F)(F)F)C1` [Example 61, (S)—N—((S)-(3-chloro-2,4-difluorophenyl)((trans)-3-(trifluoromethyl)cyclobutyl)methyl)-2-(fluoromethyl)-3-oxopiperazine-2-d-1-carboxamide] came in with a half-inhibitory concentration (IC50) of 0.7 nM. Then `O=C1NCCN(C(=O)N[C@H](c2ccc(F)c(Cl)c2F)[C@H]2C[C@H](C(F)(F)F)C2)[C@@H]1CO` [Example 64, (R)—N—((S)-(3-chloro-2,4-difluorophenyl)((trans)-3-(trifluoromethyl)cyclobutyl)methyl)-2-(hydroxymethyl)-3-oxopiperazine-1-carboxamide], with 3.2 nM.
